“Also recorded” adds a separate entry of the source. In the oligonucleotide strings, read from the 5' end, every base follows the letter of its sugar. An asterisk marks phosphorothioate; unmarked linkages are phosphodiester. Other units and linkages are bracketed, terminal groups are in braces. A string of capitals states the bases alone. d = 2'-deoxy (DNA)
Tests used:
[1] = system: cellular phosphotyrosine content of K562 cells; assay: Western analysis of total cellular phosphotyrosine content after electroporation of K562 cells; type: cell-based, human; conditions: K562 cells electroporated with 100 μM ODN, one hour later
Experimental: One hundred micrograms of protein from cell lysates were separated on a 7% SDS polyacrylamide gel. Transfer was performed overnight at 50 volts, 4° C., in a 0.2 M glycine, 25 mM Tris, pH 8.3, 0.15% SDS, 20% methanol buffer, onto […] nitrocellulose (Schleicher and Schuell Inc.). For cellular phosphotyrosine blots, Western probing was performed as described previously, with modifications (SARTOR, et al, 1991). Briefly, membranes were blocked for 2 hours with 5% albumin in TTBS (20 mM Tris HCL, pH 7.6; 0.05% Tween 20; 0.9% sodium chloride), probed for 1 hour with antiphosphotyrosine antibody (Upstate Biotechnology Inc., Lake Placid, N.Y.) diluted 1:500 in TTBS, followed by rabbit anti-mouse antibody (Cappel Research Products) and then [^125 I] protein A Sepharose (Amersham Corp., Arlington Heights, Ill.). Membranes were exposed to Kodak X-OMAT AR film overnight at -70° C. with intensifying screens.
Electroporation was performed as described (40). Briefly, 1-5×10^6 cells in 1 ml of RPMI 1640 with 10% fetal calf serum were placed into 0.4 cm gap electroporation chambers and electroporated with a Cell-Porator Electroporation System 1 (all from GIBCO BRL, Grand Island, N.Y.) at 800 microfarrads, 300 volts, at room temperature. Cells were then incubated at 37° C. for 1 hour before manipulation.
In K562 cells p210^bcr-abl is a major kinase responsible for protein tyrosine phosphorylation (38, 39). Changes in enzyme activity are therefore reflected by changes in cellular phosphotyrosine content.

p210^bcr-abl kinase = assay: Immunoprecipitation kinase assay of p210bcr-abl (autophosphorylation), ODN added to kinase reaction; type: biochemical, human; conditions: for Percent Remaining Activity of p210^bcr-abl kinase relative to control: ODN 1 μM, phosphorothioate capped, mean ± SE of three experiments; for inhibition of p210^bcr-abl kinase activity in vitro (in words): ODN at 1 μM added to the immunoprecipitated enzyme
Experimental: The p210^bcr-abl kinase, src kinase and cdc-2 kinase were immunoprecipitated from K562 cells. The p145^abl kinase was immunoprecipitated from PC3M cells, PDGF receptor kinase from 3T3 cells, and EGF receptor kinase from A431 cells. MAP kinase was utilized as a pure protein and lck kinase was immunoprecipitated from peripheral blood lymphocytes of a normal volunteer.
Cells were washed in phosphate buffered saline (PBS) and 0.5-5×10^6 cells were solubilized in 1 ml of the specified cell lysis buffers. Unless otherwise stated, all cell lysis buffers contained the following protease inhibitors: 20 μg/ml leupeptin, 1 μg/ml aprotinin, and 1 mM phenylmethylsulfonylfluroide. For p210^bcr-abl and […] immunoprecipitation, cells were lysed with ABL lysis buffer (25 mM imidazole, pH 7.2, 0.5% NP40, 50 mM NaCl, 1 mM Na3 VO4) and lysates were clarified at 14,000 g. 4° C. for 30 minutes. Cell lysis for all other proteins was performed according to the references describing the various immunoprecipitation kinase assays.
(§1) Immunoprecipitation kinase assays of p210^bcr-abl p145^abl were performed as described, with modifications (15). Briefly, for p210^bcr-abl, 1 μg of anti-bcr antibody (clone 7C6, Oncogene Science, Uniondale, N.Y.) was added to lysates prepared from 0.5-1×10^6 K562 cells. For p145^abl, 1 μg of anti-c-abl antibody (clone 24-21), which binds to the C-terminal domain of p145^abl, was added to lysates prepared from 5×10^6 PC3M cells. After incubating 1 hour at 4° C., complexes were precipitated by incubating with protein A-Sepharose coated with rabbit anti-mouse immunoglobulin (Cappel Research Products, Durham, N.C.) for 30 minutes. The complexes were then washed as follows: ABL lysis buffer×2, PBS×1, and ABL assay buffer×1 (24 mM imidazole, pH 7.2, 1 mg/ml bovine serum albumin, and 10 mM MnCl). For p145^abl assays ABL assay buffer contained 20 mM MnCl. To access the activity of p210^bcr-abl on substrate phosphorylation, acid inactivated enolase (Sigma Chemical Co., St. Louis, Mo.) was added as described (15).
(§2) ODNs were added to kinase reaction buffers not more than 5 minutes prior to the addition of ATP. Reactions were initiated by the addition of [γ^-32 P] ATP (3000 Ci/mmole; Amersham Corp., Arlington Heights, Ill.) and quenched by the addition of 5× gel loading buffer and heating to 95° C. Kinase reactions were run for 1-10 minutes at room temperature, except for EGFR, p145^abl, and MAP kinase, which were run at 30° C. The products were then electrophoresed on SDS-polyacrylamide gels: 7% for p210^bcr-abl, EGFR, and PDGFR, 8% for p145^abl, 10% for src, lck, and cdc-2 kinase, and 12% for MAP kinase. Gels were dried and reaction products were visualized by direct autoradiography at -70° C. with Kodak X-OMAT AR film. To determine the inhibitory concentration 50, i.e., the concentration required to inhibit enzyme activity by 50% (IC50) and Ki values, gel slices containing the band of interest were excised and analyzed by Cerenkov counting.

[2] = system: p210^bcr-abl kinase in K562 cells; assay: Immunoprecipitation kinase assay of p210bcr-abl from ODN treated K562 cells; type: cell-based, human; conditions: K562 cells incubated 3 days with 50 μM ODN, washed
Experimental: as §1, §2
The effects of ODN1 on a cellular system were assessed. […] After 3 days, cells were washed and p210^bcr-abl kinase activity was measured. […] Neither cellular p210^bcr-abl protein content nor cell growth was affected by ODN treatment (data not shown).

K562 cells = assay: K562 colony formation in soft agar; type: cell-based, human; conditions: 50 μM ODN, two weeks, not electroporated
Experimental: K562, NIH 3T3, and A431 cells were purchased from the American Type Culture Collection (Rockville, Md.). PC3M prostate cancer cells were a generous gift from J. Trepel (National Institutes of Health, Bethesda, Md.). K562 and PC3M cells were cultured in RPMI 1640 with 10% heat-inactivated fetal bovine serum (FBS; GIBCO BRL, Grand Island, N.Y.) while NIH 3T3 and A431 cells were cultured in Dulbecco's modified Eagle's medium (Biofluids, Rockville, Md.) with 10% heat inactivated FBS. Cells were maintained at 37° C., 6% carbon dioxide with biweekly media changes. For soft agar cloning, cells were suspended in 0.3% low melting temperature agarose (SeaPlaque FMC BioProducts, Rockland, Me.) in RPMI 1640 with 10% total calf serum and maintained as above.
To evaluate the effects of these various ODNs of K562 cell growth, both growth in liquid culture and growth in soft agar were examined. […] Cells were electroporated in the presence of 50 μM ODN and kept in liquid culture. For soft agar cloning experiments, cells were not electroporated, but were grown in the presence of 50 μM ODN for two weeks. Liquid cultures were replenished with fresh medium containing 50 μM ODN. Two weeks following incubation in liquid culture, the number of trypan blue-excluding cells was determined. No effect on cell growth in liquid culture could be observed with any ODN tested (data not shown).

PDGF receptor (PDGFR) = assay: inhibition; conditions: PS, two linkages at each of 5' and 3' ends, rest phosphodiester; autophosphorylation
MAP kinase = assay: inhibition; conditions: PS, two linkages at each of 5' and 3' ends, rest phosphodiester; 30 C
[3] = listed as BCR-AS all-phosphorothioate

5' CCGACCACTTCCGAGTACTAG-3' (chemistry not given here) [ABL-1bSCR, the scrambled version of ABL-1bAS]
total cellular protein phosphotyrosine content [1]: less marked effects

5' GGCCGTGCAGCTCGCACCGGC 3' (chemistry not given here) [ODN1C, scrambled version of ODN1]
Percent Remaining Activity of p210^bcr-abl kinase relative to control (p210^bcr-abl kinase): 74 ± 15%

5' GGCGGCCGCGCTGCAACCCGT 3' (chemistry not given here) [ODN1A, scrambled version of ODN1]
Percent Remaining Activity of p210^bcr-abl kinase relative to control (p210^bcr-abl kinase): 42 ± 6.9%

5' GGCGGCGGCGGCGGCGGCGGC 3' (chemistry not given here) [SEQ ID NO.: 11, 21mer consisting of seven tandem GGC repeats]
inhibition of p210^bcr-abl kinase activity in vitro (in words) (p210^bcr-abl kinase): inhibitory activity equivalent to ODN1

5' TCCGCGAACCCGGTGCGCCGG 3' (chemistry not given here) [ODN1D, scrambled version of ODN1 / BCR-AS]
p210^bcr-abl kinase activity of ODN treated K562 cells [2]: did not inhibit kinase activity | total cellular protein phosphotyrosine content ([1]; listed as BCR-SCR): effectively lowered protein phosphotyrosine content; also recorded: reduced protein phosphotyrosine content | ability to form colonies in soft agar (K562 cells): inhibited the ability of these cells to form colonies in soft agar | Percent Remaining Activity of p210^bcr-abl kinase relative to control (p210^bcr-abl kinase): 79 ± 79% | inhibition of p210^bcr-abl kinase activity in vitro (in words) (p210^bcr-abl kinase): does not inhibit kinase activity

5' TGCCCAACGTCGCGCCGGCGG 3' (chemistry not given here) [ODN1B, scrambled version of ODN1]
Percent Remaining Activity of p210^bcr-abl kinase relative to control (p210^bcr-abl kinase): 59 ± 6.4%

5'-CGCTGAAGTTTTGAACTCTGC-3' (chemistry not given here) [B/A-AS, spans the bcr-abl fusion region, complementary to 11 bcr and 10 abl nucleotides of the mature fusion transcript]
p210^bcr-abl kinase activity of ODN treated K562 cells [2]: inhibited kinase activity | total cellular protein phosphotyrosine content [1]: less marked effects; also recorded: no effect | ability to form colonies in soft agar (K562 cells): failed to effect the cloning ability of the cells

5'-GTCCACCATGGCGCGGCCGGC-3' [ODN1 2'-methoxy modified sugars] (2'-O-methyl modified sugars, pattern not given here)
inhibition of p210^bcr-abl kinase activity in vitro (in words) (p210^bcr-abl kinase): least effective

5'-GTCCACCATGGCGCGGCCGGC-3' [ODN1 all phosphodiester] (unmodified DNA)
total cellular protein phosphotyrosine content ([1]; listed as BCR-AS phosphodiester): equally effective | inhibition of p210^bcr-abl kinase activity in vitro (in words) (p210^bcr-abl kinase): intermediate potencies

5'-GTCCACCATGGCGCGGCCGGC-3' [ODN1 all phosphorothioate] (DNA dG*dT*dC*dC*dA*dC*dC*dA*dT*dG*dG*dC*dG*dC*dG*dG*dC*dC*dG*dG*dC)
total cellular protein phosphotyrosine content [1, 3]: no effect | inhibition of p210^bcr-abl kinase activity in vitro (in words) (p210^bcr-abl kinase): most potent inhibitor | inhibition of p210^bcr-abl kinase activity in vitro (in words) (p210^bcr-abl kinase; [3]): most effective inhibitor

5'-TCCAGGCTGCTGCCCCATAAA-3' (chemistry not given here) [ABL-1bAS, complementary to nucleotides -3 to +18 of the abl lb mRNA]
total cellular protein phosphotyrosine content [1]: less marked effects

5'-TGTACGTCCGGCTTACTAGTA-3' (chemistry not given here) [B/A-SCR, scrambled version of the B/A ODN]
p210^bcr-abl kinase activity of ODN treated K562 cells [2]: did | total cellular protein phosphotyrosine content [1]: effectively lowered protein phosphotyrosine content; also recorded: reduced protein phosphotyrosine content | ability to form colonies in soft agar (K562 cells): inhibited the ability of these cells to form colonies in soft agar

GGCG
inhibition of p210^bcr-abl kinase activity in vitro (in words) (p210^bcr-abl kinase): no inhibitory activity

GTCCACCATGGCGCGGCCGGC [ODN1 (BCR-AS), phosphorothioate capped]
IC50 (PDGF receptor (PDGFR)): 4.4 µM | IC50 (MAP kinase): > 100 µM

— patent US5998596A, “Inhibition of protein kinase activity by aptameric action of oligonucleotides” (The United States of America as represented by the …)
